Data published in paper PMC11040665, “Aminothiazolone Inhibitors Disrupt the Protein–RNA Interaction of METTL16 and Modulate the m^6A RNA Modification” (JACS Au, 2024).
“Also recorded” adds a separate entry of the source.

Assays:
[1] = target: T1, methyltransferase activity of METTL16 MTD toward MAT2A-hp1 (Homo sapiens, UniProt Q86W50); assay: In vitro methylation assay (MTase Glo); format: biochemical; conditions: for inhibition of the methyltransferase activity of METTL16 MTD, in words: RNA substrate MAT2A-hp1
T1 construct: METTL16 MTD (1–291) was subcloned to pOPINB plasmid; His tag followed by HRV 3C cleavage site (N, cleaved yes); made in house; host or cells: E. coli Rosetta (DE3)
T1 sequence (Q86W50 1-291): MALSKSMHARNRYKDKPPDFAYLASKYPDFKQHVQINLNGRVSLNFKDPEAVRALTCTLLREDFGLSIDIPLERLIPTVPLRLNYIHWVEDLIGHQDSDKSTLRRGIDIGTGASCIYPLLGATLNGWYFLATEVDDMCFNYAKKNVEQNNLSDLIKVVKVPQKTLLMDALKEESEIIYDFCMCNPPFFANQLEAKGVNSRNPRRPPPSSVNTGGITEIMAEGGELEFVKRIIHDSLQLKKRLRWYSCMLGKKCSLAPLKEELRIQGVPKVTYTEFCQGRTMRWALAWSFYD
Description: Next, we evaluated the inhibition of the METTL16 methylation using the MTase Glo assay kit (Promega) measuring the methyltransferase activity based on the formation of the methylation product S-adenosyl homocysteine, which was converted to ADP by the MTase-Glo reagent to trigger a subsequent luciferase reaction (Figure 5E).
The methyltransferase activity of METTL16 MTD was measured using an MTase Glo kit (Promega V7601) following the manufacturer’s instructions. The reaction was carried out in white 384-well plates (Corning #3824), with a total methyltransferase reaction volume of 8 μL, and the final concentrations of METTL16 MTD, MAT2A-hp1, and SAM were 1, 1, and 10 μM, respectively, and 1% of DMSO was used as a control. […] To use SAM at a different final concentration, the concentration of SAM was adjusted accordingly in a 2× substrate solution.

[2] = target: T2, METTL16 MTD–U6 snRNA Δ interaction (Homo sapiens, UniProt Q86W50); assay: FP assay with Cy5-labeled U6 snRNA Δ; format: binding
T2 construct: METTL16 MTD (1–291) was subcloned to pOPINB plasmid; His tag followed by HRV 3C cleavage site (N, cleaved yes); made in house; host or cells: E. coli Rosetta (DE3)
T2 sequence (Q86W50 1-291): T1 sequence (Q86W50 1-291)

METTL16 (1-291) = target: T3, METTL16 (1-291) (Homo sapiens, UniProt Q86W50); assay: Covalent binding evaluation by protein LC–MS; conditions: 30 μM METTL16 (1-291), 100 μM compound, 30 or 150 min
T3 construct: METTL16 MTD (1–291) was subcloned to pOPINB plasmid; His tag followed by HRV 3C cleavage site (N, cleaved yes); made in house; host or cells: E. coli Rosetta (DE3)
T3 sequence (Q86W50 1-291): T1 sequence (Q86W50 1-291)
Description: To evaluate whether the aminothiazolones covalently bind to METTL16, we performed the LC–MS analysis after incubating the protein with aminothiazolones for 30 and 150 min, respectively. In the case of covalent binding, we would expect to observe the formation of covalent adducts, which would accrue over time. […] Besides the LC–MS analysis result, an irreversible inhibition counter screening indicated the reversible inhibitory activity of the aminothiazolones (Figure S8A).
Figure S7. Covalent evaluation of METTL16 inhibitors via LC-MS. (A) Deconvoluted mass spectrum of 30 µM METTL16 (1-291) incubated with 1% DMSO for 30 min (left) and 150 min (right). (B), (C), (D) Deconvoluted […]
(right). Expected Mass for METTL16 (1-291), 33455.7 Da. The observed small mass shift of ~50 Da appeared in both the DMSO control and compound-treated samples was probably formed by the solvent used in the LC-MS.
(1 picture or pasted object on this page, not shown here)
For computational docking analysis of aminothiazolones to the RNA binding site of METTL16 (PDB code: 6B91)2 Schrödinger® Maestro 12.3 was used. […]
Chemical states were generated with the ligand preparation module and METTL16 conformation with the protein preparation module. […] The glide dock module was used and the results were evaluated according to interactions between small molecules and METTL16, small molecule orientations, docking scores and solvent exposure patterns. […]
METTL16 MTD protein was diluted in SEC buffer (20mM pH 7.5, 200 mM NaCl, 0.5 mM TCEP,5% v/v glycerol) to a final concentration of 30 µM, and incubated with DMSO or 100 μM compound (final 1% DMSO) at room temperature. After incubation (30 min or 150 min), the samples were analyzed on an Agilent 1260 II Infinity system equipped with an electrospray ion source in positive mode, run through a Desalting cartridge (AdvanceBio Desalting-RP, 2.1 mm, 12.5mm, Agilent) with a gradient of 5-80% HPLC-grade acetonitrile (+ 0.1% TFA) in HPLC-grade water (+ 0.1% TFA) (flowrate: 0.4 mL/min, runtime: 6 min). […]

[3] = target: T4, METTL16 (1-291)–FAM-MAT2A-hp1 RNA (Homo sapiens, UniProt Q86W50); assay: FP assay after incubating SAM with METTL16; format: binding; conditions: SAM incubated with METTL16 before the FP assay
T4 construct: METTL16 MTD (1–291) was subcloned to pOPINB plasmid; His tag followed by HRV 3C cleavage site (N, cleaved yes); made in house; host or cells: E. coli Rosetta (DE3)
T4 sequence (Q86W50 1-291): T1 sequence (Q86W50 1-291)

MDA-MB-231 cells = assay: Colony formation assay; format: cell-based, human; conditions: 7 days, three tested concentrations
Description: MDA-MB-231 cells were collected and seeded with the density of 1000 cells per well into 24-well plates; after being cultured overnight, the medium was exchanged and treated with indicated compounds or DMSO (0.5%) as the control. The medium change and treatment were performed every 3 days. After 7 days, the cell culture medium was discarded, and cells were washed with PBS and fixed with 4% paraformaldehyde solution at room temperature for 15 min; the paraformaldehyde solution was removed, and cells were washed with PBS again to remove the paraformaldehyde. Then cells were stained with 0.1% (w/v) crystal violet. After staining for 15 min, the cells were washed with H2O to remove the extra dye and then photographed.

[4] = target: T5, METTL16 MTD–GGACU-containing RNA interaction (Homo sapiens, UniProt Q86W50); assay: EMSA with GGACU-containing RNA; conditions: 5 nM RNA, 600 nM METTL16 MTD
T5 sequence (Q86W50 1-291): T1 sequence (Q86W50 1-291)
Description: METTL16 MTD protein (1–291) was incubated with the indicated compound or DMSO in a buffer containing 20 mM HEPES, pH 7.5, 50 mM NaCl, 0.05% v/v Tween 20, and 0.05 mg/mL BGG at room temperature for 30 min; subsequently, FAM-MAT2A-hp1 RNA probe was added and incubated at room temperature for 10 min, the final of protein and RNA are 50 and 5 nM respectively, and 1% DMSO was used as the control. […] The gel was detected and imaged by Chemi Doc MP (Bio-Rad). […] EMSA for testing compounds with GGAUC-motif containing RNA and METTL16 MTD interaction was performed using the method described above, expecting that the final of METTL16 MTD protein and FAM-labeled-GGACU RNA are 600 nM and 5 nM respectively. EMSA for RNA binding: indicated concentrations of fluorophore-labeled RNA were incubated with indicated concentrations of protein in EMSA buffer for 15 min at room temperature, then loaded to native PAGE gels and imaged with the method described above.

[5] = target: T6, METTL16–MAT2A-hp1 mRNA interaction (METTL16 MTD 1–291, FAM-labeled MAT2A-hp1 RNA) (Homo sapiens, UniProt Q86W50); assay: Fluorescence polarization (FP) assay, disruption of METTL16 binding to FAM-MAT2A-hp1 RNA
T6 sequence (Q86W50 1-291): T1 sequence (Q86W50 1-291)
Description: The binding of METTL16 to the FAM-labeled RNA probe formed a complex that led to a higher FP signal in comparison to that of the unbound RNA probe (Figure 2A). […] The Z-factor of 0.91 indicated the suitability of the assay condition (Figure S2D). […] In both FP assay and EMSA, a final concentration of 50 nM METTL16 and 5 nM FAM-MAT2A-hp was used. The METTL16 MTD (amino acids 1–291) was used in this study unless specifically indicated otherwise.
The FP assay was performed using 384-well black plates (Corning #4514) in a total reaction volume of 20 μL, with the final concentration of protein and RNA being 50 and 5 nM respectively. Compounds were diluted in FP buffer and incubated with protein for 30 min at room temperature, then FAM-MAT2A-hp1 RNA probe was added and the fluorescence polarization was measured using a TECAN Spark plate reader, under the excitation wavelength of 485 nm and the emission wavelength of 535 nm with bandwidth of 20 nm. 1% DMSO was used as the control. The inhibition was calculated with the equation: inhibition = 100%(Control – X)/(Control – Blank); Control: DMSO with protein and FAM-RNA; Blank: DMSO with FAM-RNA; X: compound with protein and FAM-RNA. The IC50 value was further determined using GraphPad Prism 9. […] The polarization was measured under an excitation wavelength of 630 nm and an emission wavelength of 680 nm with a bandwidth of 20 nm.

Structure (SMILES)	inhibition of the methyltransferase activity of METTL16 MTD, in words [1]	inhibition at 50 µM ([1]; at 50 μM, 1 μM METTL16 MTD, 1 μM MAT2A-hp1, 10 μM SAM) [%]	IC50 [2] [µM]	covalent adduct formation with METTL16 (LC–MS) (METTL16 (1-291))	IC50 under different SAM concentrations (FP assay), in words [3]	inhibition on colony formation, in words (MDA-MB-231 cells)	inhibition of METTL16–GGACU RNA binding in EMSA, in words [4]	IC50 [5] [µM]
O=C1N=C(NS(=O)(=O)c2ccc(C(=O)O)cc2)SC1=C1C(=O)Nc2ccc(Br)cc21 [Compound 47]	dose-dependently inhibited; also recorded: potent inhibitory activity	> 50	6.4	no such covalent adduct with a mass shift was observed	remained	mild inhibitory activity against colony formation	dose-dependently inhibited	2.1
CN1C(=O)C(=C2SC(NS(=O)(=O)c3ccc(C(=O)O)cc3)=NC2=O)c2cc(Br)ccc21 [Compound 45]	dose-dependently inhibited		2.5	no such covalent adduct with a mass shift was observed	remained	did not show obvious inhibition on colony formation	dose-dependently inhibited	1.7
